Assay results taken from patent publication US20060281806A1, “Treatment and inhibition of disease conditions using flexible heteroarotinoids” (priority 2005, published 2006).

Columns and labels:
[1] = system: C33a human cervical cell line; test: In vitro cytotoxicity (SRB growth inhibition) assay, C33a; assay type: cell-based; parameters: dose or concentration left out as unconfirmed; details: 72 h
Description: The SHetA2, SHetA3, SHetA4, SHet50 and 9-cis-RA compounds were evaluated in 4 cervical carcinoma cell lines. The SiHa, CC-1 and C33a human cervical cell lines were maintained in Minimal Essential Media (MEM) containing Earle's salts and L-glutamine supplemented with nonessential amino acids, 1% sodium pyruvate, 10% fetal bovine serum (FBS) and antibiotic/antimycotic. The HT-3 cervical carcinoma cell line was cultured in McCoy's 5a medium supplemented with 10% FBS and antibiotic/antimycotic. Cells were inoculated into 96 well microtiter plates at densities of 1000 cells/well and incubated for 24 h prior to addition of drugs. Drugs were dissolved in dimethyl sulfoxide (DMSO) and diluted in complete medium, prior to addition to triplicate culture wells to achieve final concentrations of […]. Following drug addition, the plates were incubated for 72 h. The assay was terminated by the addition of cold TCA and the cells were stained with 0.4% sulforhodamine B (SRB) in 1% acetic acid. Bound stain was subsequently solubilized with 10 mM trizma base, and the absorbance was read on an automated plate reader at a wavelength of 560 nm. Growth inhibition was determined by dividing the average Optical Density (OD) of the triplicated treated cultures by the average OD of the triplicate control cultures treated with DMSO solvent only. This ratio was converted into a percentage by multiplying by 100. The potency (concentration required to induce half of the maximal activity—GI50) were derived from dose-response graphs generated with results from 3 to 5 individual experiments using GraphPad Software.

OVCAR-3 xenograft tumors = test: Histochemical and immunohistochemical evaluation of xenograft tumors (glands, MUC-1, TUNEL); assay type: in vivo, mouse; details: 10 mg/kg/day by gavage; end of treatment; versus control
From the text: On the last day of treatment, the animals were sacrificed and then the tumors were removed, fixed in neutral buffered formalin and embedded in paraffin. Five micron sections of the paraffin-embedded tumors were stained with hematoxylin and eosin (H&E) for histologic evaluation, and with the TUNEL (terminal deoxynucleodidyl transferase-mediated biotin-deoxyuridine triphosphate nick) FragEL kit (Oncogene Research Products, Boston, Mass.) for evaluation of apoptosis according to manufacturers instructions. MUC-1 expression was detected in tumor sections using a mouse monoclonal antibody to human MUC-1 (Pharmingen, San Diego, Calif.) and the Histostain-Plus AEC Kit (Zymed Laboratories, San Francisco, Calif.) according to manufacturers instructions. Briefly, endogenous peroxidase activity in deparaffinized sections was quenched with 3% H2O2 in methanol and then sections were incubated in serum blocking solution, and subsequently in primary antibody, diluted 1:50 in phosphate buffered saline (PBS), overnight at 4° C. in a humid chamber. Sections were then washed with PBS, treated with biotinylated secondary antibody for 15 minutes, followed by enzyme conjugate for 10 minutes. […] Tumor sections were scored for number of glands (quantified in one H&E stained sections and 3 MUC-1-stained sections) and MUC-1 and TUNEL staining (based on staining intensity and percent positive cells). […]

[2] = system: EAhy.926 endothelial cells; test: Growth/viability of endothelial cells versus ovarian cancer cell lines; assay type: cell-based; details: SHetA2 for 24 hours
Description: The graph on the left provides quantification of the endothelial branches for each treatment dose.
The increased thickness of the vessels at 1 μM and the increasing proportions of solitary clumps of cells at 5 and 10 μM indicate that SHetA2 is inhibiting endothelial cell migration. To determine if this anti-angiogenic activity was due to growth inhibition or cytotoxicity. The viability of the endothelial cells treated with SHetA2 for 24 hours was evaluated. […] This confirms the therapeutic ratio observed in previous studies.

B16 mouse melanoma = test: B16 melanoma syngeneic tumor model; assay type: in vivo; details: oral 60 mg/kg/day
Description: FIG. 12. Various Xenograft tumors stained with CD34 antibodies (brown) to identify endothelium. The B16 mouse melanoma cell line was established as a syngeneic tumor in an immunocompetent mouse model and the human Caki renal cancer and A2780 ovarian xenograft tumors in immunocompromised mice. The treated mice were gavaged with 60 mg/kg/day SHetA2 and the untreated were gavaged with solvent only. The tumors were excised and sections were stained with the anti-CD34 antibody to detect endothelial cells (brown stain).
Survival was the primary endpoint of those studies. […] Tumor growth was the primary endpoint of the renal cancer study.

[3] = system: Thymidine Phosphorylase (TP); test: Real time rt-PCR and Western blot validation, TP; assay type: cell-based; details: 1 μM (rt-PCR, OVCAR-3) and 10 μM (Western blot, A2780)
Description: FIG. 13. Real Time rt-PCR validation of SHetA2 inhibition of TP and TSP-1 mRNA Expression. OVCAR-3 cultures were treated with 1 μM SHetA2 for the indicated period of time prior to harvesting the cells and isolating RNA. cDNA was prepared and used in real time rt-PCR reactions. Real time rt-PCR was performed on CDNA from cultures various treatment times.
FIG. 14. Western blot validation of SHetA2 inhibition of TP and TSP4 protein expression. A2780 ovarian cancer cells were treated with 10 μM SHetA2 for the indicated amounts of time. Equal amounts of whole cell protein extracts were evaluated by Western blot.

[4] = RAID pharmacokinetic studies (35); cited from earlier work

CC1(C)CC(C)(C)c2cc(NC(=S)Nc3ccc([N+](=O)[O-])cc3)ccc2S1 [SHetA2]
Efficacy: percent growth inhibition relative to the untreated control [1]: 87% | MUC-1 expression in xenograft tumors (OVCAR-3 xenograft tumors): increase staining for mucin-1 (MUC1) protein | gland formation (numbers of glands) in xenograft tumors (OVCAR-3 xenograft tumors): greatest degree of gland induction | growth inhibition of endothelial cells compared with A2780 and OVCAR-3 [2]: much less growth inhibited | survival (B16 mouse melanoma; melanoma model): improved survival | development of blood vessels inside tumors (anti-CD34 staining) (B16 mouse melanoma; melanoma): inhibited the development of blood vessels | expression of TP at the RNA and protein levels [3]: inhibit expression | concentrations achieved and maintained in mice [4]: micromolar concentrations
